Assays:
IRGOV-1 = assay: MTT cytotoxicity, ovarian cancer cell line IRGOV-1; format: cell-based; settings: 72 hours
Experimental: (§1) Finally, a comparison study of the cytotoxicity of Re-Phen and phenformin in a panel of ovarian cancer cell lines by MTT assay after a 72 hour incubation period was conducted. Ovarian cells were seeded at 5000 cells/well in 96-well plates overnight, and treated with Re-Phen or phenformin in different concentrations (from 4.57×10^−4 mM to 1.0 mM in 3-fold increase) at 37° C. for 72 hours. Cell viability was measured using the MTT assay. The absorption at 590 nm was measured at microplate reader (SpectraMax, Molecular Device, San Diego, CA) to quantify cell numbers. The proportion of cells was normalized to that of untreated cells and expressed as mean±standard error of the mean (SEM) (n=5-6). The resulting reduced viability with half-maximal inhibitory concentration (IC50) values of mM were calculated by a sigmoidal dose-response (variable slope) curve-fitting using GraphPad Prism software. The data are shown in FIG. 19A (Re-Phen) and FIG. 19B (phenformin). […] In fact, Re-Phen is shown to display >2,000-fold and >5,000-fold higher cytotoxicity against OVACAR-8 and SKOV3 (Table 2) human ovarian cancer cell lines, respectively.

OVCAR4 = assay: MTT cytotoxicity, ovarian cancer cell line OVCAR4; format: cell-based
Experimental: as §1

A2789-cp20 = assay: MTT cytotoxicity, ovarian cancer cell line A2789-cp20; format: cell-based; settings: 72 hours
Experimental: as §1

HeyA8 = assay: MTT cytotoxicity, ovarian cancer cell line HeyA8; format: cell-based
Experimental: as §1

OVCAR8 = assay: MTT cytotoxicity, ovarian cancer cell line OVCAR8; format: cell-based, human
Experimental: as §1

SKOV3 = assay: MTT cytotoxicity, ovarian cancer cell line SKOV3; format: cell-based, human
Experimental: as §1

[1] = tested on: PDAC cells (Kras*, MiaPaca-2); assay: Annexin V/PI flow cytometry cell death; format: cell-based; settings: 250 μM, 24 hours, Kras* and MiaPaca-2 cell lines
Text: Vehicle (DMSO) treated cells were used as a control.
AMPK is a key enzyme that becomes activated under nutrient stress. Annexin V/PI double staining kit was used to detected cell death in flow cytofluorimetric analyses. […] In Kras* cell line, cells died largely of necrosis; in MiaPaca-2 cell line, cells died mostly of apoptosis.

MiaPaca-2 cells = assay: Untargeted IC-MS metabolomics; format: cell-based
Experimental: Samples were measured by untargeted IC-MS after 12 hours of treatment (n=3).
Metabolites were extracted from lysed cells and samples were measured by untargeted IC-MS (n=3). Data are expressed as mean±SD (n=3). *p<0.05 compared to phenformin.
Following, untargeted IC-MS was used to analyze changes in cellular metabolites.

PDAC cells = assay: DCFDA cellular ROS detection assay; format: cell-based; settings: for level of reactive oxygen species (ROS): DCFDA assay, FIG. 9B
Experimental: Decreased fluorescence intensity measured at Ex/Em 485/535 nm indicated decreased level of ROS. Data are expressed as mean±SD (n=4). ***p<0.001 compared to vehicle (DMSO) control.
The production of intracellular reactive oxygen species (ROS) after treatments with Re-Phen and phenformin in PDAC cells was also measured (FIG. 16). DCFDA Cellular ROS Detection AssayKit (Abcam, Cambridge, MA) was used to measure Intracellular reactive oxygen species (ROS). Briefly, after seeded into 96-well plates at a cell density of 2.5×10^4 cells per well overnight, cell monolayers were washed and incubated for 45 min at 37° C. in the dark in the presence of 25 μM DCFDA diluted in serum-free adhesion medium without phenol red according to the manufacturer's instructions. Cells were then treated with compounds as indicated for 1 hour. End-point fluorescence was measured in a fluorescence microplate reader (Syneregy H1, Bio-Tek, Winooski, VT) at 485 nm excitation and 535 nm emission wavelengths.

[2] = tested on: normal cells (RAW264.7, NIH3T3, hTERT-HPNE); assay: MTT cytotoxicity against normal cells; format: cell-based; settings: 72 hours
Experimental: Next, RAW264.7 (FIG. 14A), NIH3T3 (FIG. 14B), or hTERT-HPNE (FIG. 14C) cells were seeded in 96-well plates (5000 cells/well) overnight, and treated with Re-Phen or phenformin in concentrations ranging from 4.57×10−4 mM to 1.0 mM at 37° C. for 72 hours. Cell viability was measured using the MTT assay. The proportion of cells was normalized to that of untreated cells and expressed as mean±standard error of the mean (SEM) (n=5). The half-maximal inhibitory concentration (IC50) values were calculated by a sigmoidal dose-response (variable slope) curve-fitting using GraphPad Prism software.

[3] = Re-Phen versus phenformin, Table 2

SMILES: N=C(N)NC(=N)NCCc1ccccc1.[C-]#[O+].[C-]#[O+].[C-]#[O+].[Re+] [Re-Phen]
- IC50 (IRGOV-1): 420 µM
- IC50 (OVCAR4; 72 hours): 390 µM
- IC50 (A2789-cp20): 260 µM
- IC50 (HeyA8; 72 hours): 82 µM
- IC50 (OVCAR8; MTT, 72 hours): 110 µM
- fold higher cytotoxicity against OVACAR-8 (OVCAR8; [3]): > 2,000 fold
- IC50 (SKOV3; MTT, 72 hours): 35 µM
- fold higher cytotoxicity against SKOV3 (SKOV3; [3]): > 5,000 fold
- induction of cell death [1]: more potent than phenformin
- purine nucleotide pool compared to phenformin (MiaPaca-2 cells): increased purine nucleotide pool
- pyrimidine nucleotide pool (MiaPaca-2 cells): decreased pyrimidine nucleotide pool
- level of 3-phosphoglycerate (3-PG) (MiaPaca-2 cells; 100 μM, 12 h): increased the level of 3-phosphoglycerate (3-PG) more than phenformin did
- level of phosphoenolpyruvate (PEP) (MiaPaca-2 cells; 100 μM, 12 h): suppressed the level of phosphoenolpyruvate (PEP)
- level of glutathione (GSH) (MiaPaca-2 cells; 200 μM, 12 hours): increased the level of glutathione (GSH)
- TCA cycle: level of succinate and aspartate versus vehicle (MiaPaca-2 cells; 12 h): reduced level of succinate and aspartate
- level of reactive oxygen species (ROS) (PDAC cells): reduced the level of reactive oxygen species (ROS)
- ROS levels in MiaPaca-2 cells (PDAC cells; MiaPaca-2 cells, DCFDA, treated 1 hour, FIG. 16): reduced ROS levels
- cytotoxicity against normal cells [2]: generally less cytotoxic than phenformin

SMILES: [H]/N=C(/N)N/C(=N/[H])NCCc1ccccc1 [Phenformin, N-phenylethyl biguanide, reference compound]
- IC50 (IRGOV-1): 380 µM
- IC50 (OVCAR4; Homo sapiens, OVCAR-4, 72 hours): 2430 µM
- IC50 (A2789-cp20): 100 µM
- IC50 (HeyA8; HEY A8, 72 hours): 22 µM
- pyrimidine nucleotide pool (MiaPaca-2 cells): decreased pyrimidine nucleotide pool
- TCA cycle: level of succinate and aspartate versus vehicle (MiaPaca-2 cells; 12 h): reduced level of succinate and aspartate
- level of reactive oxygen species (ROS) (PDAC cells): increased the level of ROS

— patent US20240299595A1, “CANCER THERANOSTIC COMPOSITIONS COMPRISING BIGUANIDE COMPLEXES OF GROUP 7 TRANSITION METALS AND USES THEREOF” (BOARD OF REGENTS, THE UNIVERSITY OF TEXAS SYSTEM, priority 2021, published 2024)
